Literature values, collected in patent US6939400B2, “Ink, production method of the same materials for producing the same and printed matter with the same” (Teikoku Printing Mfg. Co., Ltd., priority 2002, dated 2005).

Test system: mouse

COC(C)(C)CCO [3-methyl-3-methoxy-1-butanol]
LD 50 value representing the mouse oral toxicity: 5,830 mg/kg
